Laboratory results taken from the supplement of paper PMC10307832.

Compound: CC(C)(C)c1nc(-c2cccc(NS(=O)(=O)c3c(F)cccc3F)c2F)c(-c2ccnc(N)n2)s1 [Dabrafenib] + O=C(c1cc(Cc2n[nH]c(=O)c3ccccc23)ccc1F)N1CCN(C(=O)C2CC2)CC1 [Olaparib] (partner 8 µM)
Assay: relative viability (nuclei count vs DMSO), 5 days (fraction); higher = more cells survive
Details: first compound 0.003 µM
How it was run: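 Lung cancer cell lines in 1536-well plates got either a single drug or a fixed anchor-drug dose together with five library-drug doses (not always all listed) in √10 steps, by pin tool, on the day after seeding. Nuclei were counted after 5 days, and relative viability is the treated-to-vehicle ratio of nuclei counts. Values are medians of duplicate plates.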

Cell Line	relative viability
LCLC-103H	0.716
HCC-827	0.65
COR-L 105	0.685
NCI-H1299	0.932
NCI-H2126	0.906
NCI-H647	0.661
HCC-44	0.952
NCI-H1651	0.177
NCI-H1755	0.845
PC-14	0.237
NCI-H1650	0.827
ChaGo-K-1	0.458
A-427	0.704
NCI-H1648	1.01
Calu-6	0.569
COR-L23	0.394
SW 1573	0.501
NCI-H2342	0.42
NCI-H661	0.739
NCI-H2009	0.638
NCI-H520	0.312
EBC-1	0.686
NCI-H2023	0.478
SK-MES-1	0.582

Same assay, conditions: first compound 0.009487 µM

Cell Line	relative viability
ABC-1	0.707
CAL-12T	0.685
NCI-H1944	0.41
NCI-H2085	0.769
IA-LM	0.743
NCI-H2228	0.464
NCI-H441	0.609
NCI-H522	0.788
EMC-BAC-2	0.444
NCI-H2170	0.605
NCI-H1703	0.548
UMC-11	0.879
NCI-H650	0.381
LCLC-103H	0.733
NCI-H596	0.68
HCC-827	0.79
COR-L 105	0.793
NCI-H1299	0.886
NCI-H2126	0.884
A549	0.34
NCI-H647	0.558
LOU-NH91	0.923

Cell Line	relative viability
HCC-78	0.847
HCC-44	1.03
NCI-H1651	0.186
NCI-H1755	0.819
HOP-62	0.297
PC-14	0.293
NCI-H1650	0.721
ChaGo-K-1	0.413
A-427	0.685
NCI-H1355	0.763
NCI-H1648	0.98
Calu-6	0.556
COR-L23	0.291
SK-LU-1	0.521
SW 1573	0.468
NCI-H2342	0.435
NCI-H661	0.685
NCI-H2009	0.626
NCI-H520	0.317
EBC-1	0.691
NCI-H2023	0.432
SK-MES-1	0.671

Same assay, conditions: first compound 0.03 µM

Cell Line	relative viability
ABC-1	0.953
CAL-12T	0.671
NCI-H1944	0.382
NCI-H2085	0.823
IA-LM	0.831
NCI-H2228	0.615
NCI-H441	0.609
NCI-H522	0.59
EMC-BAC-2	0.433
NCI-H2170	0.544
NCI-H1703	0.326
UMC-11	0.354
NCI-H650	0.341
LCLC-103H	0.687
NCI-H596	0.675
HCC-827	0.62
COR-L 105	0.702
NCI-H1299	0.902
NCI-H2126	0.871
A549	0.293
NCI-H647	0.449
LOU-NH91	0.918

Cell Line	relative viability
HCC-78	0.733
HCC-44	1.08
NCI-H1651	0.176
NCI-H1755	0.788
HOP-62	0.388
PC-14	0.241
NCI-H1650	0.764
ChaGo-K-1	0.404
A-427	0.707
NCI-H1355	0.769
Calu-6	0.482
COR-L23	0.312
SK-LU-1	0.372
SW 1573	0.475
NCI-H2342	0.401
NCI-H661	0.746
NCI-H2009	0.625
NCI-H520	0.305
EBC-1	0.664
NCI-H2023	0.492
SK-MES-1	0.627

Same assay, conditions: first compound 0.09487 µM

Cell Line	relative viability
ABC-1	0.849
CAL-12T	0.574
NCI-H1944	0.393
NCI-H2085	0.71
IA-LM	0.687
NCI-H2228	0.439
NCI-H441	0.334
NCI-H522	0.642
EMC-BAC-2	0.336
NCI-H2170	0.5
NCI-H1703	0.341
UMC-11	0.317
NCI-H650	0.189
LCLC-103H	0.801
NCI-H596	0.651
COR-L 105	0.599
NCI-H1299	0.884
NCI-H2126	0.878
A549	0.112
NCI-H647	0.557
LOU-NH91	0.889

Cell Line	relative viability
HCC-78	0.452
HCC-44	1
NCI-H1651	0.147
NCI-H1755	0.859
PC-14	0.283
NCI-H1650	0.794
ChaGo-K-1	0.312
A-427	0.658
NCI-H1355	0.639
NCI-H1648	0.523
Calu-6	0.303
COR-L23	0.325
SK-LU-1	0.347
SW 1573	0.415
NCI-H2342	0.454
NCI-H661	0.75
NCI-H2009	0.439
NCI-H520	0.271
EBC-1	0.39
NCI-H2023	0.46
SK-MES-1	0.567

Same assay, conditions: first compound 0.3 µM

Cell Line	relative viability
ABC-1	1.26
CAL-12T	0.76
NCI-H1944	0.402
